Values joined by “and” are separate entries in the source; they are usually repeats but may differ in a detail not shown here. Identical values can stand only once.
Assay: Absorption rate of carbon-14 Compound A from different vehicles after SQ or IM injection (Example 2, Table I)
Type: in vivo, rats
Conditions: for Relative Percent Absorption: compared to aqueous buffer over 6 hours
Method: A series of experiments was carried out to determine the absorption rate of a compound which are useful in the composition of this invention as compared to other compositions which are not included within the scope of the claims of the invention. In each experiment 56 rats were used. Two groups of 27 rats are required for the test formulations and the two remaining rats are used to obtain blank plasma samples. […] Each composition is prepared by dissolving 2.7 milligrams of the compound in 10 milliliters of the solvent. This represents approximately 5 microcuries of carbon 14 and 41 micrograms of dl-9α,11α,15α-trihydroxy-16-phenoxy-17,18,19,20-tetranorprosta-4,5,13-trans-trienoic acid (Compound A). Blood samples from each of three rats from each group are obtained by […] at the following time points after injection: 15 minutes, 30 minutes, 45 minutes, 60 minutes, 2 hours, 3 hours, 4 hours, 5 hours and 6 hours. The two untreated rats are sampled to obtain blank plasma sample.
*Compared to aqueous buffer over 6 hours.

[1] = vehicle 90% Glycerin H2O, SQ, .15 ml, 5 μCi
[2] = vehicle Aq. Buffer, IM, .15 ml, 5 μCi
[3] = vehicle Aq. Buffer, SQ, .15 ml, 5 μCi
[4] = vehicle Glycerin, SQ, .15 ml, 5 μCi
[5] = vehicle PEG 400, IM, .15 ml, 5 μCi
[6] = vehicle PEG 400, SQ, .15 ml, 5 μCi
[7] = vehicle PEG 400, SQ, .30 ml, 10 μCi

O=C(O)CCC=C=CC[C@@H]1[C@@H](/C=C/[C@@H](O)COc2ccccc2)[C@H](O)C[C@@H]1O (relative stereo) [Compound A, dl-9α,11α,15α-trihydroxy-16-phenoxy-17,18,19,20-tetranorprosta-4,5,13-trans-trienoic acid]
Absorption Rate Constant Ka [1]: 6.5 hr^1 | Relative Percent Absorption [1]: 51.5% | Absorption Rate Constant Ka [2]: 10.14 hr^1 | Relative Percent Absorption [2]: 100% | Absorption Rate Constant Ka [3]: 10.14 hr^1 | Relative Percent Absorption [3]: 60.9% | Absorption Rate Constant Ka [4]: 5.0 hr^1 | Relative Percent Absorption [4]: 50.4% | Absorption Rate Constant Ka [5]: 3.7 hr^1 | Relative Percent Absorption [5]: 35.5% | Absorption Rate Constant Ka [6]: 3.7 hr^1 | Relative Percent Absorption [6]: 27.6% and 31.4% | Absorption Rate Constant Ka [7]: 3.7 hr^1 | Relative Percent Absorption [7]: 26.2%
